Data: patent publication US12281080B2, “Quinoline-based compounds and methods of inhibiting CDK8/19” (University of South Carolina, priority 2018, dated 2025)

Assays:
Experiment in all cases: KINOMEscan scanMAX
Format in all cases: binding
Details in all cases: 2000 nM; read-out: Percent Control
DCAMKL3 (DCLK3) = DCAMKL3 (DCLK3) (Homo sapiens (Human), UniProt Q9C098)
ROCK1 = ROCK1 (Homo sapiens (Human), UniProt Q13464)
CDK8 = CDK8 (Homo sapiens (Human), UniProt P49336)
EPHA7 = EPHA7 (Homo sapiens (Human), UniProt Q15375)
TAOK2 = TAOK2 (Homo sapiens (Human), UniProt Q9UL54)
PIP5K2B (PIP4K2B) = PIP5K2B (PIP4K2B) (Homo sapiens (Human), UniProt P78356)
CDK4 = CDK4 (Homo sapiens (Human), UniProt P11802)
KIT(D816V) = KIT(D816V) (Homo sapiens (Human), UniProt P10721, D816V)
RAF1 = RAF1 (Homo sapiens (Human), UniProt P04049)
STK36 = STK36 (Homo sapiens (Human), UniProt Q9NRP7)
ALK(L1196M) = ALK(L1196M) (Homo sapiens (Human), UniProt Q9UM73, L1196M)
MLK3 (MAP3K11) = MLK3 (MAP3K11) (Homo sapiens (Human), UniProt Q16584)
EGFR(L861Q) = EGFR(L861Q) (Homo sapiens (Human), UniProt P00533, L861Q)
ERK1 (MAPK3) = ERK1 (MAPK3) (Homo sapiens (Human), UniProt P27361)
MAP4K3 = MAP4K3 (Homo sapiens (Human), UniProt Q8IVH8)
CHEK1 = CHEK1 (Homo sapiens (Human), UniProt O14757)
NLK = NLK (Homo sapiens (Human), UniProt Q9UBE8)
CDK5 = CDK5 (Homo sapiens (Human), UniProt Q00535)
MARK3 = MARK3 (Homo sapiens (Human), UniProt P27448)
TLK2 = TLK2 (Homo sapiens (Human), UniProt Q86UE8)
EGFR(T790M) = EGFR(T790M) (Homo sapiens (Human), UniProt P00533, T790M)
CDK4-cyclinD1 = CDK4-cyclinD1 (Homo sapiens (Human), UniProt P11802)
DLK (MAP3K12) = DLK (MAP3K12) (Homo sapiens (Human), UniProt Q12852)
CDK7 = CDK7 (Homo sapiens (Human), UniProt P50613)
EPHB4 = EPHB4 (Homo sapiens (Human), UniProt P54760)
PIP5K1C = PIP5K1C (Homo sapiens (Human), UniProt O60331)
CDK11 (CDK19) = CDK11 (CDK19) (Homo sapiens (Human), UniProt Q9BWU1)
EPHA1 = EPHA1 (Homo sapiens (Human), UniProt P21709)
[1] = target: RSK2(Kin.Dom.2-C-terminal) (RPS6KA3) (Homo sapiens (Human), UniProt P51812)
CLK1 = CLK1 (Homo sapiens (Human), UniProt P49759)
IKK-epsilon (IKBKE) = IKK-epsilon (IKBKE) (Homo sapiens (Human), UniProt Q14164)
LZK (MAP3K13) = LZK (MAP3K13) (Homo sapiens (Human), UniProt O43283)
MST4 = MST4 (Homo sapiens (Human), UniProt Q9P289)
ZAK = ZAK (Homo sapiens (Human), UniProt Q9NYL2)
DDR2 = DDR2 (Homo sapiens (Human), UniProt Q16832)
MET = MET (Homo sapiens (Human), UniProt P08581)
FLT3(D835H) = FLT3(D835H) (Homo sapiens (Human), UniProt P36888, D835H)
WEE2 = WEE2 (Homo sapiens (Human), UniProt P0C1S8)
SBK1 = SBK1 (Homo sapiens (Human), UniProt Q52WX2)

ALK(L1196M), sequence (Q9UM73 19-1620 L1196M): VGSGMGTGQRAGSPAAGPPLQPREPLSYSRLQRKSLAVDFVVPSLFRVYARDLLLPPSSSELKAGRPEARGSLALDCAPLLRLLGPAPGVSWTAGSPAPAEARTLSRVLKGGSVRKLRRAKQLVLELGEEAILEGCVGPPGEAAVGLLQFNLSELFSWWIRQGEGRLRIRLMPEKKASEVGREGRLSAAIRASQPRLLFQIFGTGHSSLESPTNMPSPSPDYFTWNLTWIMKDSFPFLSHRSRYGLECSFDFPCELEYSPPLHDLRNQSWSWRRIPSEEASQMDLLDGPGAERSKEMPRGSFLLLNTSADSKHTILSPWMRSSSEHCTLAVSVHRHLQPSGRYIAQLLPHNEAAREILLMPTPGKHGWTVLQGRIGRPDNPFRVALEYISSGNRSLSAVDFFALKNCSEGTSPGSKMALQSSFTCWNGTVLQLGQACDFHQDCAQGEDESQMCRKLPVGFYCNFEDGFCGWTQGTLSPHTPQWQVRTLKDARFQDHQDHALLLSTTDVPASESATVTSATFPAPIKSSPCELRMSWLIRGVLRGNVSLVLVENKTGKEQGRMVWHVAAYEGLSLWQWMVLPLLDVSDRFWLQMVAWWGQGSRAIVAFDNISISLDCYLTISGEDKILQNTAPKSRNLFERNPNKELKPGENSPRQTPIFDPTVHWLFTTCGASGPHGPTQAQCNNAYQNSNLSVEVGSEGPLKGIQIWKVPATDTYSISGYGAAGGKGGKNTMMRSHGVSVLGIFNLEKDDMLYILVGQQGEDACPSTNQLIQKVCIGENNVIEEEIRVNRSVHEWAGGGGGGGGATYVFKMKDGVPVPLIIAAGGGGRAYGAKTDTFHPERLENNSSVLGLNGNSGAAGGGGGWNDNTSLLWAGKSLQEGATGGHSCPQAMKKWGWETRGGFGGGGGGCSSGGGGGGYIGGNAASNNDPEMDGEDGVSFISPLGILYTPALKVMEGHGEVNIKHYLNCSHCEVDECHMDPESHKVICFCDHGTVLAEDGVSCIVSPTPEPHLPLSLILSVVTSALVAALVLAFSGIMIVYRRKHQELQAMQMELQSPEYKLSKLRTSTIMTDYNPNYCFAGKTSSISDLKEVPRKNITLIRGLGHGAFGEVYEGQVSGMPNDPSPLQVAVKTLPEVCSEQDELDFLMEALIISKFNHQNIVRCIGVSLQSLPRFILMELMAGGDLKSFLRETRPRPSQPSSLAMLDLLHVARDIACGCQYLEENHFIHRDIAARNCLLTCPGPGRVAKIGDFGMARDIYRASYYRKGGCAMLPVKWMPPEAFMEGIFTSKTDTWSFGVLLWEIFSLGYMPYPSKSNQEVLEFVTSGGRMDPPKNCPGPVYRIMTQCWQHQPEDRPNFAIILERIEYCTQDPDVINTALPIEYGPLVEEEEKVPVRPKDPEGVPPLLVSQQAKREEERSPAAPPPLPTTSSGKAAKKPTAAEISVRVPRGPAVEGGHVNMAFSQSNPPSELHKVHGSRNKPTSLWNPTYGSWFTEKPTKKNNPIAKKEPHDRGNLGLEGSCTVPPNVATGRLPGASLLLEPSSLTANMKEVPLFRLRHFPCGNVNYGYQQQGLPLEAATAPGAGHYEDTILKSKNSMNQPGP
LZK (MAP3K13), sequence (O43283 whole entry): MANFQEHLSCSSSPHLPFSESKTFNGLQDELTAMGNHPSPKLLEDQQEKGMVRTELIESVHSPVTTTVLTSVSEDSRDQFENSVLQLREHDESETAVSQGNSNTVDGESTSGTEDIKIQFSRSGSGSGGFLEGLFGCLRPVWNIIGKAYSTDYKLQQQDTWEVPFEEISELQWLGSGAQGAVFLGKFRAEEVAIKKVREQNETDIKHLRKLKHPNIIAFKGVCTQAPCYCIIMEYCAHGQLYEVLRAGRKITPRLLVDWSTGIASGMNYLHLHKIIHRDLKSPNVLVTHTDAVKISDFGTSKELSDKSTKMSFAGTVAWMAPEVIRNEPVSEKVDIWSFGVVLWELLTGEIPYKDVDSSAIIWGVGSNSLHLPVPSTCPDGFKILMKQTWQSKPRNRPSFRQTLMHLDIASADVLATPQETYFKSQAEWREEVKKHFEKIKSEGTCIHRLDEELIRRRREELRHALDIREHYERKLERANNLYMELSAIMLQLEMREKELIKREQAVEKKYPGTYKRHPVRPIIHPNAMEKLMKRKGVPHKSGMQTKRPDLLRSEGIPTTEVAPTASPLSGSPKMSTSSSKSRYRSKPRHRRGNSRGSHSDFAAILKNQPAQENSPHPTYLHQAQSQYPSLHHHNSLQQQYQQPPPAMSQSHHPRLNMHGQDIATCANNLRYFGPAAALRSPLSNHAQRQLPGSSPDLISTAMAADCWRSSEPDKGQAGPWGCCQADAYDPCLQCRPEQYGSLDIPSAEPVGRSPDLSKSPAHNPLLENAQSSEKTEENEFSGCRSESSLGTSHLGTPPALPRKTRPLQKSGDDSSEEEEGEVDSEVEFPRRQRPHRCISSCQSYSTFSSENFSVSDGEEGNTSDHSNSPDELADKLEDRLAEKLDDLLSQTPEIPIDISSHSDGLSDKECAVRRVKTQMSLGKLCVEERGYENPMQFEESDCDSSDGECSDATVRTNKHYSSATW
NLK, sequence (Q9UBE8 whole entry): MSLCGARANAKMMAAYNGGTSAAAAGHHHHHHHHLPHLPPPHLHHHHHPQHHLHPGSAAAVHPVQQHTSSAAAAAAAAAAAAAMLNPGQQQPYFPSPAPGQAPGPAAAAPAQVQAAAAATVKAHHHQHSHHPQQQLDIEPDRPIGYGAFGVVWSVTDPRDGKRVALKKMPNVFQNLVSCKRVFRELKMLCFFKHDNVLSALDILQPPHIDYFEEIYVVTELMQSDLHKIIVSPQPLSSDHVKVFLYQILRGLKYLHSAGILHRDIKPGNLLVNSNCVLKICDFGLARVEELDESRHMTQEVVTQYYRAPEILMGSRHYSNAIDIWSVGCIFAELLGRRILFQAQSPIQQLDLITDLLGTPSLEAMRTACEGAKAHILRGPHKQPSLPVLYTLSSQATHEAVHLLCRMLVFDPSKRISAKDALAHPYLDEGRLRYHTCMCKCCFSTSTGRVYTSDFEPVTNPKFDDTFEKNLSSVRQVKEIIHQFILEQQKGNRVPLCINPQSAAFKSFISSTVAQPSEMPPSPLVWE
EPHA7, sequence (Q15375 28-998): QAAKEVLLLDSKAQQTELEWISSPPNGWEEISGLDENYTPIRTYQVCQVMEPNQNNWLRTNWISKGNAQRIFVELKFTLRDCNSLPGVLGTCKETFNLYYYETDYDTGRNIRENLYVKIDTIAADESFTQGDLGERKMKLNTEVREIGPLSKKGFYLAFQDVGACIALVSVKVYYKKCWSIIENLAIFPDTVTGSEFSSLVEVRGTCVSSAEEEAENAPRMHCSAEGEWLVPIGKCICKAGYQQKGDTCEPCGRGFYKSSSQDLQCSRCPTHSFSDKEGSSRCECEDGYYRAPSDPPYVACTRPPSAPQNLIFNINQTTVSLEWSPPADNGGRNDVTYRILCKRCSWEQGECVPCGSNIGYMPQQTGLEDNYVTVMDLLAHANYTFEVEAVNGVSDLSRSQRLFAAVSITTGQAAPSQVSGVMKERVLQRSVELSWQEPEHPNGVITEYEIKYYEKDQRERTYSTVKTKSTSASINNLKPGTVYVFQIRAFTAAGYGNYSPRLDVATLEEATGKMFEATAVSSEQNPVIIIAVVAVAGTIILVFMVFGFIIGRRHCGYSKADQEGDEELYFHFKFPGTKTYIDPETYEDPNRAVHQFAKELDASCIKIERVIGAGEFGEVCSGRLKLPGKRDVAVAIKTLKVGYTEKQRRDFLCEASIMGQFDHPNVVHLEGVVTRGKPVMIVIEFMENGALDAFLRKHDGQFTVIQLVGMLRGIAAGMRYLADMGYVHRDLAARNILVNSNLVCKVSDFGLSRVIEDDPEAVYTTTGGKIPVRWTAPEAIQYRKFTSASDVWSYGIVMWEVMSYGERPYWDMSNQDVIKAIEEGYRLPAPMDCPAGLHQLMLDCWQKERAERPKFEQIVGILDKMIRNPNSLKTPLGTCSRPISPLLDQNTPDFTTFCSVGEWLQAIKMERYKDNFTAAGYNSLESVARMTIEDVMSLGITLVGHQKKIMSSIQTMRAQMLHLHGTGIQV
WEE2, sequence (P0C1S8 whole entry): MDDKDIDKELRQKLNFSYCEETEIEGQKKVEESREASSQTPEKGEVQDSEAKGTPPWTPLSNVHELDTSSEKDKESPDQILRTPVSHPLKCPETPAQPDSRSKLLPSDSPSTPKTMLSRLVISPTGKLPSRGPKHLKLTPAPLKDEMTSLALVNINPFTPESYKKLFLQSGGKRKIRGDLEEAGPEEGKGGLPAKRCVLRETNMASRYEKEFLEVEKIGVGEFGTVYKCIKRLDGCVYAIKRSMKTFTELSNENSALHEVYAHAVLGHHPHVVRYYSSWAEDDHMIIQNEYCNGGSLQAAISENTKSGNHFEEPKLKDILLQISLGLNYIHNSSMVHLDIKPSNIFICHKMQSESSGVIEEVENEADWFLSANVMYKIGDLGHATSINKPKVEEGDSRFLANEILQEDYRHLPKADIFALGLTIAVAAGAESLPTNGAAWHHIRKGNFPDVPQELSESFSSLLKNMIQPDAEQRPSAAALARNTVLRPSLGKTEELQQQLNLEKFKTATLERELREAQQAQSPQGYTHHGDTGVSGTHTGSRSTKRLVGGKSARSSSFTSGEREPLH
PIP5K2B (PIP4K2B), sequence (P78356 whole entry): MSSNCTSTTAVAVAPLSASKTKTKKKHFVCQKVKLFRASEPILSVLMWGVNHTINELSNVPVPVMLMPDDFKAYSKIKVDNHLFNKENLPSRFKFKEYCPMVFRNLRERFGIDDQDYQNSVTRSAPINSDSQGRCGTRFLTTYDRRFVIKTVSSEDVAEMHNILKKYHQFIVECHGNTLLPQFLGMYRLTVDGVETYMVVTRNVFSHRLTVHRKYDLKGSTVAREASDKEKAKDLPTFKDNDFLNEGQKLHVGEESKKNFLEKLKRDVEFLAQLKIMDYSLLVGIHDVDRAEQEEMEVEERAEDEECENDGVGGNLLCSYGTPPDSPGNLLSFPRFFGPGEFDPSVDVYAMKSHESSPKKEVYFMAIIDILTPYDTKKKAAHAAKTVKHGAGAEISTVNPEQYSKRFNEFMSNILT

In the case of `CN1CCN(C(=O)c2ccc3cc(CCNc4ccnc5ccc(C#N)cc45)ccc3c2)CC1` [compound 6148, 4-((2-(6-(4-methylpiperazine-1-carbonyl)naphthalen-2-yl)ethyl)amino)quinoline-6-carbonitrile], the remaining binding at 2 µM (DCAMKL3 (DCLK3)) is reported as 96%, the remaining binding at 2 µM (ROCK1) is reported as 52% and the remaining binding at 2 µM (CDK8) is reported as 1.3%. It also gave a remaining binding at 2 µM (EPHA7) of 91%, a remaining binding at 2 µM (TAOK2) of 77% and a remaining binding at 2 µM (PIP5K2B (PIP4K2B)) of 85%. It also gave a remaining binding at 2 µM (CDK4) of 67%, a remaining binding at 2 µM (KIT(D816V)) of 100% and a remaining binding at 2 µM (RAF1) of 98%. It also gave a remaining binding at 2 µM (STK36) of 88%, a remaining binding at 2 µM (ALK(L1196M)) of 92% and a remaining binding at 2 µM (MLK3 (MAP3K11)) of 99%. It also gave a remaining binding at 2 µM (EGFR(L861Q)) of 64%, a remaining binding at 2 µM (ERK1 (MAPK3)) of 95% and a remaining binding at 2 µM (MAP4K3) of 100%. It also gave a remaining binding at 2 µM (CHEK1) of 100%, a remaining binding at 2 µM (NLK) of 90% and a remaining binding at 2 µM (CDK5) of 100%. For the same compound, the remaining binding at 2 µM (MARK3) was 94%, the remaining binding at 2 µM (TLK2) was 88% and the remaining binding at 2 µM (EGFR(T790M)) was 93%. For the same compound, the remaining binding at 2 µM (CDK4-cyclinD1) was 83%, the remaining binding at 2 µM (DLK (MAP3K12)) was 68% and the remaining binding at 2 µM (CDK7) was 69%. It also gave a remaining binding at 2 µM (EPHB4) of 89%, a remaining binding at 2 µM (PIP5K1C) of 87% and a remaining binding at 2 µM (CDK11 (CDK19)) of 13%. It also gave a remaining binding at 2 µM (EPHA1) of 93%, a remaining binding at 2 µM [1] of 65% and a remaining binding at 2 µM (CLK1) of 60%. It also gave a remaining binding at 2 µM (IKK-epsilon (IKBKE)) of 91%, a remaining binding at 2 µM (LZK (MAP3K13)) of 46% and a remaining binding at 2 µM (MST4) of 68%. The remaining binding at 2 µM (ZAK) was 94%, the remaining binding at 2 µM (DDR2) was 64% and the remaining binding at 2 µM (MET) was 90%. For the same compound, the remaining binding at 2 µM (FLT3(D835H)) was 88%, the remaining binding at 2 µM (WEE2) was 95% and the remaining binding at 2 µM (SBK1) was 57%.
